Measurements published in patent US20050215530A1, “Combination therapy for the treatment of cancer” (priority 2002, published 2005).

How the values were obtained:
A549 human NSCLC cells = assay: A549 NSCLC xenograft model; conditions: for Tumour size: day 42 after tumour implantation, RT 4 Gy days 8, 9, 15, 16, ZD6126 150 mg/kg i.p. days 10, 17, ZD1839 2.5 mg per day p.o. days 7-11 and 14-18
Procedure: A549 NSCLC Xenograft Model
A human non-small cell lung cancer (NSCLC) xenograft model was used. Athymic nude mice were injected subcutaneously (s.c.) with A549 human NSCLC cells. Treatment began after 7 days when tumours were established (tumour volume=100-300 mm^3). […] Animals in all groups were sacrificed on day 42 after tumour cell implantation, when the control tumours reached approximately 2.0 cm^3.

human LoVo tumour cells = assay: LoVo tumour model; assay type: in vivo, athymic nude mice; conditions: s.c. LoVo xenograft; ZD6126 200 mg/kg i.p. day 0; ZD1839 200 mg/kg/day p.o. days 0-13; 8 mice per group
Procedure: Athymic nude mice were implanted subcutaneously with 1.5×10^7 human LoVo tumour cells (obtained from European Collection of Cell Cultures, ECACC, CAMR, Salisbury, Wiltshire, SP4 0JG, UK; Cat. no. CCL 229) and tumours allowed to grow until they were approximately 9 mm in diameter. Groups of 8 tumour bearing mice were then treated as follows: • Control animals were dosed with PBSA 0.1 ml/10 g intraperitoneally (i.p.) single bolus on day 0 then about 2 h hours later 0.1% Tween 80 0.1 ml/10 g orally (p.o.) on day 0, followed by 0.1% Tween 80 0.1 ml/10 g p.o. once daily on days 1-13; • ZD6126 alone was dosed 200 mg/kg i.p. on day 0; • ZD1839 alone was dosed 200 mg/kg/day p.o. on days 0-13; and
(in the combination arm) ZD6126 200 mg/kg i.p. on day 0 then about 2 hours later ZD1839 200 mg/kg p.o. dosed on day 0, followed by ZD1839 200 mg/kg p.o. once daily on days 1-13. Tumour growth was measured twice weekly from calliper measurements of tumour diameter and the time taken for tumours to double in size compared using the Mann-Whitney U statistic.

tumour vasculature = conditions: reported in Proc. Am Assoc. Cancer Res. 2000; 41: 329; cited from earlier work

Row | SMILES | Tumour size (A549 human NSCLC cells) [cm^3 S.D.] | Growth delay in days for tumours to double in size (human LoVo tumour cells) | effect on tumour vasculature (in words) (tumour vasculature) | inhibition of tumour growth (in words) (A549 human NSCLC cells; A549 xenograft, compared with control animals or single agents)
1 | COc1cc2ncnc(Nc3ccc(F)c(Cl)c3)c2cc1OCCCN1CCOCC1 [ZD1839, N-(3-chloro-4-fluorophenyl)-7-methoxy-6-(3-morpholinopropoxy)quinazolin-4-amine, reference compound] | 1.41 ± 0.08 | 8.3 days; p < 0.01 | – | –
2 | COc1cc2c(c(OC)c1OC)-c1ccc(OP(=O)(O)O)cc1[C@@H](NC(C)=O)CC2 [ZD6126, N-acetylcolchinol-O-phosphate] | 1.17 ± 0.10 | 3.6 days; p < 0.05 | selectively disrupts tumour vasculature leading to vessel occlusion and extensive tumour necrosis | marked inhibition of tumour growth
